Experimental data as given in patent US7622482B2, “Chemical compounds” (AstraZeneca, priority 2005, dated 2009).

What follows are compounds tested against T1, human Trk A kinase (Homo sapiens, UniProt P04629) (assay: Trk A kinase assay (Alphascreen)). Conditions: intracellular domain of HIS-tagged human Trk A, 70 μM ATP, 20 minutes, room temperature, read-out: Trk inhibitory activity IC50.
T1 construct: His; made in house; host or cells: SF9 insect cells
Assay type: biochemical
Protocol: Trk A kinase activity was measured for its ability to phosphorylate synthetic tyrosine residues within a generic polypeptide substrate using an Amplified Luminescent Proximity Assay (Alphascreen) technology (PerkinElmer, 549 Albany Street, Boston, Mass.).
To measure Trk A kinase activity, the intracellular domain of a HIS-tagged human Trk A kinase (amino acids 442-796 of Trk A, Swiss-Prot Primary Accession Number P04629) was expressed in SF9 cells and purified using standard nickel column chromatography. After incubation of the kinase with a biotinylated substrate and adenosine triphosphate (ATP) for 20 minutes at room temperature, the kinase reaction was stopped by the addition of 30 mM ethylenediaminetetraacetic acid (EDTA). The reaction was performed in 384 well microtitre plates and the reaction products were detected with the addition of strepavidin coated Donor Beads and phosphotyrosine-specific antibodies coated Acceptor Beads using the EnVision Multilabel Plate Reader after an overnight incubation at room temperature.

T1 sequence (P04629 442-796): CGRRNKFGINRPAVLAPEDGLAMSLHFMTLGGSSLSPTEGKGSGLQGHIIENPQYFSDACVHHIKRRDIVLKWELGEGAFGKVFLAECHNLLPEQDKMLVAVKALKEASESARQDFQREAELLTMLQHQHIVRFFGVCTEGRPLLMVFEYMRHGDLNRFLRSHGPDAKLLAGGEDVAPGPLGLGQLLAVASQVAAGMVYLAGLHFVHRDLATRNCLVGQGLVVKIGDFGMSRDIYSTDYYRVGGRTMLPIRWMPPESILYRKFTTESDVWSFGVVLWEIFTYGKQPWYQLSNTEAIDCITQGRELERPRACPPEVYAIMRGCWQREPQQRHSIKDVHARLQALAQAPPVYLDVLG

| IC50 | SMILES |
| --- | --- |
| 63 nM | CC(C)Oc1cc(Nc2ncc3ncn([C@@H](C)c4ccc(F)cc4)c3n2)n[nH]1 [Example 5, 9-[(1S)-1-(4-Fluorophenyl)ethyl]-N-(5-isopropoxy-1H-pyrazol-3-yl)-9H-purin-2-amine] |
| 49 nM | C[C@@H](c1ccc(F)cc1)n1cnc2ccc(Nc3cc(C4CC4)[nH]n3)nc21 [Example 6, (S)—N-(5-Cyclopronyl-1H-pyrazol-3-yl)-3-(1-(4-fluorophenyl)ethyl)-3H-imidazo[4,5-b]pyridin-5-amine] |
| 11 nM | Fc1ccc(Cn2cnc3cc(Cl)c(Nc4cc(C5CC5)[nH]n4)nc32)cc1 [Example 18, 3-(4-Fluorobenzyl)-6-chloro-N-(5-cyclopropyl-1H-pyrazol-3-yl)-3H-imidazo[4,5-b]pyridin-5-amine] |
